The results in this text go back to patent US11459339B2, “Biaryl derivative, preparation method thereof and pharmaceutical application thereof” (Abbisko Therapeutics Co., Ltd., priority 2018, dated 2022).

For test [1], the target named is interaction between PD-1 and PD-L1 expressed on cell surfaces (Homo sapiens (Human), UniProt Q9NZQ7). Kind of test: Jurkat reporter gene cellular assay (Jurkat/NF-κB-luc/PD1 cells cocultured with Raji-PD-L1 cells, OKT-3 stimulation). Format: cell-based. Particulars: NF-κB-luc reporter activation fold, 6 hrs; read-out: Cell Activity EC50. The procedure, abridged:
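Jurkat cells stably expressing human PD-1 and NF-κB-luciferase were cocultured with Raji cells stably expressing human PD-L1 under OKT-3 stimulation, with compound present. Luminescence was read after 6 h.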

Test [2] has as its target interaction between PD-1 and PD-L1 (Homo sapiens (Human), UniProt Q9NZQ7). Kind of test: PD1-PDL1 HTRF binding activity test (Cisbio PD-1/PD-L1 binding assay kit). The conditions noted are these: read-out: PD1-PDL1 HTRF Binding Activity IC50.

Sequence of interaction between PD-1 and PD-L1 expressed on cell surfaces (Q9NZQ7 19-290): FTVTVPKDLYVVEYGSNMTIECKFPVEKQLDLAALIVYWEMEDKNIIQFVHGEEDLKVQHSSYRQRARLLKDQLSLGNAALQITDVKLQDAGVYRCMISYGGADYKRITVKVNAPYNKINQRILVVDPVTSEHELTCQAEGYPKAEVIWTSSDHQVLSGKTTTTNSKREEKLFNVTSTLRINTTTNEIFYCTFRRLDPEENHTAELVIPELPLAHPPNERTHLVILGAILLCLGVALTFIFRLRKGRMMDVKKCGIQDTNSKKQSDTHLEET
Sequence of interaction between PD-1 and PD-L1 (Q9NZQ7 19-238): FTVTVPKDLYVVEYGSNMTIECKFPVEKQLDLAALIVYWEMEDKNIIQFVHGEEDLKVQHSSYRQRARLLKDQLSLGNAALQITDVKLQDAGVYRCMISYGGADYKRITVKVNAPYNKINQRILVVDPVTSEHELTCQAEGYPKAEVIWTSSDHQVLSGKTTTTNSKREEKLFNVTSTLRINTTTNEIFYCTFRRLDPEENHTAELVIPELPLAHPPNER

With `COc1cc(C(=O)Nc2cccc(-c3cccc(NC(=O)c4cc(OC)c(CN[C@@H](CCO)C(=O)O)cn4)c3C)c2C)ncc1CN[C@@H](CCO)C(=O)O` [Example 69], the EC50 in test [1] came out at 105 nM. In addition, in test [2], the IC50 stood at 0.39 nM.
Consider `COc1cc(C(=O)Nc2cccc(-c3cccc(NC(=O)c4cc(OC)c(CN[C@@H]5CCOC5=O)cn4)c3C)c2C)ncc1CN[C@@H]1CCOC1=O` [Example 70, N,N'-(2,2′-dimethyl-[1,1′-biphenyl]-3,3′-diyl)bis(4-methoxy-5-((((R)-2-oxotetrahydrofuran-3-yl)amino)methyl)picolinamide)], for which the EC50 in test [1] was found to be 2200 nM. In addition, in test [2], the IC50 amounted to 0.54 nM.
As for `COc1cc(C(=O)Nc2cccc(-c3cccc(NC(=O)c4cc(OC)c(CN[C@H](CCO)C(=O)O)cn4)c3C)c2C)ncc1CN[C@H](CCO)C(=O)O` [Example 71], the EC50 in test [1] stood at 756 nM. Moreover, in test [2], the IC50 came to 0.33 nM.
Regarding `COc1cc(C(=O)Nc2cccc(-c3cccc(NC(=O)c4cc(OC)c(CN[C@@H]5COC(=O)C5)cn4)c3C)c2C)ncc1CN[C@@H]1COC(=O)C1` [Example 72, N,N'-(2,2′-dimethyl-[1,1′-biphenyl]-3,3′-diyl)bis(4-methoxy-5-((((S)-5-oxotetrahydrofuran-3-yl)amino)methyl)picolinamide)], the EC50 in test [1] is 1560 nM. In addition, the IC50 in test [2] came out at 0.48 nM.
Regarding `COc1cc(C(=O)Nc2cccc(-c3cccc(NC(=O)c4cc(OC)c(CN[C@H](CO)CC(=O)O)cn4)c3C)c2C)ncc1CN[C@H](CO)CC(=O)O` [Example 73, (3S,3′S)-3,3′-((((((2,2′-dimethyl-[1,1′-biphenyl]-3,3′-diyl)bis(azanediyl))bis(carbonyl))bis (4-methoxypyridine-6,3-diyl))bis (methylene))bis(azanediyl))bis(4-hydroxybutanoic acid)], the EC50 in test [1] was 812 nM. Further, the IC50 in test [2] came out at 0.29 nM.
As for `COc1cc(C(=O)Nc2cccc(-c3cccc(NC(=O)c4cc(OC)c(CN[C@H]5COC(=O)C5)cn4)c3C)c2C)ncc1CN[C@H]1COC(=O)C1` [Example 74], in test [1], the EC50 came out at 303 nM. The IC50 in test [2] came to 0.14 nM.
On to `COc1cc(C(=O)Nc2cccc(-c3cccc(NC(=O)c4cc(OC)c(CN[C@@H](CO)CC(=O)O)cn4)c3C)c2C)ncc1CN[C@@H](CO)CC(=O)O` [Example 75], for which the EC50 in test [1] was 782 nM. The IC50 in test [2] amounted to 0.36 nM.
The like results for `COC[C@@H](NCc1cnc(C(=O)Nc2cccc(-c3cccc(NC(=O)c4cc(OC)c(CN[C@H](COC)C(=O)OC)cn4)c3C)c2C)cc1OC)C(=O)OC` [Example 76, dimethyl 2,2′-((((((2,2′-dimethyl-[1,1′-biphenyl]-3,3′-diyl)bis(azanediyl))bis(carbonyl))bis (4-methoxypyridine-6,3-diyl))bis(methylene))bis(azanediyl))(2R,2′R)-bis(3-methoxypropanoate)] were, in that order, 3060 nM and 7.8 nM.
Taken in the same sequence, the figures for `COC[C@@H](NCc1cnc(C(=O)Nc2cccc(-c3cccc(NC(=O)c4cc(OC)c(CN[C@H](COC)C(=O)O)cn4)c3C)c2C)cc1OC)C(=O)O` [Example 77, (2R,2′R)-2,2′-((((((2,2′-dimethyl-[1,1′-biphenyl]-3,3′-diyl)bis(azanediyl))bis(carbonyl))bis(4-methoxypyridine-6,3-diyl))bis(methylene))bis (azanediyl))bis(3-methoxypropanoic acid)] were 297 nM and 0.41 nM.
As for `COC[C@H](NCc1cnc(C(=O)Nc2cccc(-c3cccc(NC(=O)c4cc(OC)c(CN[C@@H](COC)C(=O)OC)cn4)c3C)c2C)cc1OC)C(=O)OC` [Example 78, dimethyl 2,2′-((((((2,2′-dimethyl-[1,1′-biphenyl]-3,3′-diyl)bis(azanediyl))bis(carbonyl))bis(4-methoxypyridine-6,3-diyl))bis(methylene))bis (azanediyl))(2S,2′S)-bis(3-methoxypropanoate)], the EC50 in test [1] is 2910 nM. Further, the IC50 in test [2] stood at 10.9 nM.
For `COC[C@H](NCc1cnc(C(=O)Nc2cccc(-c3cccc(NC(=O)c4cc(OC)c(CN[C@@H](COC)C(=O)O)cn4)c3C)c2C)cc1OC)C(=O)O` [Example 79, (2S,2′S)-2,2′-((((((2,2′-dimethyl-[1,1′-biphenyl]-3,3′-diyl)bis(azanediyl))bis(carbonyl))bis(4-methoxypyridine-6,3-diyl))bis(methylene))bis (azanediyl))bis(3-methoxypropanoic acid)], in test [1], the EC50 is 171 nM. In addition, the 50% inhibitory concentration (IC50) in test [2] amounted to 0.65 nM.
The like results for `COc1cc(C(=O)Nc2cccc(-c3cccc(NC(=O)c4cc(OC)c(CNCCS(C)(=O)=O)cn4)c3C)c2C)ncc1CNCCS(C)(=O)=O` [Example 80, N,N'-(2,2′-dimethyl-[1,1′-biphenyl]-3,3′-diyl)bis(4-methoxy-5-(((2-(methylsulfonyl)ethyl)amino)methyl)picolinamide)] were, in that order, 3740 nM and 0.082 nM.
As to `COc1cc(C(=O)Nc2cccc(-c3cccc(NC(=O)c4cc(OC)c(CNCC[S+](C)[O-])cn4)c3C)c2C)ncc1CNCC[S+](C)[O-]` (stereo not shown) [Example 81, N,N'-(2,2′-dimethyl-[1,1′-biphenyl]-3,3′-diyl)bis(4-methoxy-5-(((2-(methylsulfinyl)ethyl)amino)methyl)picolinamide)], the concentration giving a half-maximal response (EC50) in test [1] worked out at 900 nM. In addition, the IC50 in test [2] came to 0.43 nM.
On to `COC(=O)[C@H]1CCN(Cc2cnc(C(=O)Nc3cccc(-c4cccc(NC(=O)c5cc(OC)c(CN6CC[C@H](C(=O)OC)C6)cn5)c4C)c3C)cc2OC)C1` [Example 82, dimethyl 1,1′-(((((2,2′-dimethyl-[1,1-biphenyl]-3,3′-diyl)bis(azanediyl))bis(carbonyl))bis(4-methoxypyridine-6,3-diyl))bis(methylene))(3S,3′S)-bis(pyrrolidine-3-carboxylate)], for which, in test [1], the EC50 came to 566 nM. In addition, the IC50 in test [2] was 1.9 nM.
Regarding `COc1cc(C(=O)Nc2cccc(-c3cccc(NC(=O)c4cc(OC)c(CN5CC[C@H](C(=O)O)C5)cn4)c3C)c2C)ncc1CN1CC[C@H](C(=O)O)C1` [Example 83, (3S,3′S)-1,1′-(((((2,2′-dimethyl-[1,1′-biphenyl]-3,3′-diyl)bis(azanediyl))bis(carbonyl))bis(4-methoxypyridine-6,3-diyl))bis(methylene))bis (pyrroidine-3-carboxylic acid)], the EC50 in test [1] was determined as 309 nM. Moreover, the IC50 in test [2] worked out at 1.04 nM.
Taken in the same sequence, the figures for `COC(=O)C1CCN(Cc2cnc(C(=O)Nc3cccc(-c4cccc(NC(=O)c5cc(OC)c(CN6CCC(C(=O)OC)CC6)cn5)c4C)c3C)cc2OC)CC1` [Example 84, dimethyl 1,1′-(((((2,2′-dimethyl-[1,1′-biphenyl]-3,3′-diyl)bis(azanediyl))bis(carbonyl))bis(4-methoxypyridine-6,3-diyl))bis(methylene))bis(piperidine-4-carboxylate)] were 603 nM and 1.36 nM.
`COc1cc(C(=O)Nc2cccc(-c3cccc(NC(=O)c4cc(OC)c(CN5CCC(C(=O)O)CC5)cn4)c3C)c2C)ncc1CN1CCC(C(=O)O)CC1` [Example 85, 1,1′-(((((2,2′-dimethyl-[1,1′-biphenyl]-3,3′-diyl)bis(azanediyl))bis(carbonyl))bis (4-methoxypyridine-6,3-diyl))bis(methylene))bis (piperidine-4-carboxylic acid)]: the EC50 in test [1] was 341 nM. Moreover, the IC50 in test [2] is 0.45 nM.
In the case of `COc1cc(C(=O)Nc2cccc(-c3cccc(NC(=O)c4cc(OC)c(CN[C@H](CO)C(N)=O)cn4)c3C)c2C)ncc1CN[C@H](CO)C(N)=O` [Example 86, N,N′-(2,2′-dimethyl-[1,1′-biphenyl]-3,3′-diyl)bis(5-((((R)-1-amino-3-hydroxy-1-oxopropan-2-yl)amino)methyl)-4-methoxypicolinamide)], the EC50 in test [1] is 406 nM. The IC50 in test [2] turned out to be 1.34 nM.
As for `CCNC(=O)[C@@H](CO)NCc1cnc(C(=O)Nc2cccc(-c3cccc(NC(=O)c4cc(OC)c(CN[C@H](CO)C(=O)NCC)cn4)c3C)c2C)cc1OC` [Example 87], the EC50 in test [1] stood at 800 nM. Moreover, the IC50 in test [2] was 1.08 nM.
The like results for `COc1cc(C(=O)Nc2cccc(-c3cccc(NC(=O)c4cc(OC)c(CNCCS(C)(=N)=O)cn4)c3C)c2C)ncc1CNCCS(C)(=N)=O` (stereo not shown) [Example 88, N,N'-(2,2′-dimethyl-[1,1′-biphenyl]-3,3′-diyl)bis(4-methoxy-5-(((2-(S-methylsulfonimidoyl)ethyl)amino)methyl)picolinamide)] were, in that order, 182 nM and 0.41 nM.
In the case of `COc1cc(C(=O)Nc2cccc(-c3cccc(NC(=O)c4cc(OC)c(CNCCN=S(C)(C)=O)cn4)c3C)c2C)ncc1CNCCN=S(C)(C)=O` [Example 89, N,N'-(2,2′-dimethyl-[1,1′-biphenyl]-3,3′-diyl)bis(5-(((2-((dimethyl(oxo)λ^6-sulfaneylidene)amino)ethyl)amino)methyl)-4-methoxypicolinamide)], in test [1], the EC50 stood at 427 nM. In test [2], the IC50 was found to be 0.87 nM.
`COc1cc(C(=O)Nc2cccc(-c3cccc(NC(=O)c4cc(OC)c(CNCCN=S5(=O)CCCC5)cn4)c3C)c2C)ncc1CNCCN=S1(=O)CCCC1` [Example 90, N,N'-(2,2′-dimethyl-[1,1′-biphenyl]-3,3′-diyl)bis(4-methoxy-5-(((2-((1-oxidotetrahydro-1λ^6-thiophen-1-ylidene)amino)ethyl)amino)methyl)picolinamide)]: in test [1], the EC50 stood at 131 nM. Further, the IC50 in test [2] is 0.36 nM.
In the case of `Cc1c(NC(=O)c2cc(C3CC3)c(CNCCO)cn2)cccc1-c1cccc(NC(=O)c2cc(C3CC3)c(CNCCO)cn2)c1C` [Example 91, N,N'-(2,2′-dimethyl-[1,1′-biphenyl]-3,3′-diyl)bis(4-cyclopropyl-5-(((2-hydroxyethyl)amino)methyl)picolinamide)], the EC50 in test [1] was 39 nM. For the same compound, in test [2], the half-inhibitory concentration (IC50) amounted to 0.16 nM.
